The text below walks through data of patent US20080248511A1, “METHODS TO QUENCH LIGHT FROM OPTICAL REACTIONS” (priority 2007, published 2008).

Holding throughout (format): biochemical
For experiment [1], the target named is T1, firefly luciferase (Photinus pyralis, UniProt P08659). Kind of experiment: Quaternary ammonium/phosphonium detergent screen, firefly luciferase (Example 5). The note with it: final conc. 0.03% detergent, Tergitol NP-9 present; for remaining activity at 0.03 %: read-out: Retained Firefly Luciferase Luminescence (%).
T1 sequence (P08659 whole entry): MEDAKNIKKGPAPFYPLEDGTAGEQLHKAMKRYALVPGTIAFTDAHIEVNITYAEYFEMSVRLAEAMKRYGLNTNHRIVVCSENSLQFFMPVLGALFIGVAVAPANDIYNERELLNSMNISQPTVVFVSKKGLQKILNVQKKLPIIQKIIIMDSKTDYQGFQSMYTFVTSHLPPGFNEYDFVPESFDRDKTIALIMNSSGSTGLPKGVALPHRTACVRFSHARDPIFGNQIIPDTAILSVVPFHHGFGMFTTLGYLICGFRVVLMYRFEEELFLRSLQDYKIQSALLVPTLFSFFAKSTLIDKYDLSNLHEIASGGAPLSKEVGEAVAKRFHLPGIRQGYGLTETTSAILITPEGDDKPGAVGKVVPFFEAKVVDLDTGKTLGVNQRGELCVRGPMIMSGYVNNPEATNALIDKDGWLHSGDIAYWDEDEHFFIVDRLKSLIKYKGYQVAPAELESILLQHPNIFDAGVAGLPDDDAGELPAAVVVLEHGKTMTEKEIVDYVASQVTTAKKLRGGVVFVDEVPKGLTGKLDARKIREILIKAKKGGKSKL
Experiment [2] deals with T2, Renilla luciferase (Renilla reniformis, UniProt P27652).
T2 sequence (P27652 1-311): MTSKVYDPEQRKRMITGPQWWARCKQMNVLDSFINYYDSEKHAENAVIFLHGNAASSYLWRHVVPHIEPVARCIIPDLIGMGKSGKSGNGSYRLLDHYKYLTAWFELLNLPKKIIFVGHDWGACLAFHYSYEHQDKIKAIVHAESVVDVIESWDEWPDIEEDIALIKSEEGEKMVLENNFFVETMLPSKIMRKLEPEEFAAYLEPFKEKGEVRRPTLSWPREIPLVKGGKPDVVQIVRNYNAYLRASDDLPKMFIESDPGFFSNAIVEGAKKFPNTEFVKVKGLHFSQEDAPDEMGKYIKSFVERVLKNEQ
Put plainly: Quaternary ammonium/phosphonium detergent screen, Renilla luciferase (Example 5). The note with it: final conc. 0.03% detergent; for Retained Renilla Luciferase Luminescence (%) / remaining activity at 0.03 %: Tergitol NP-9 present; for remaining activity at 0.03 %: read-out: Retained Renilla Luciferase Luminescence (%).

Experiment [3] concerns the target T2, Renilla luciferase. Described as above. The note with it: for Retained Renilla Luciferase Luminescence (%) / remaining activity at 0.1 %: Tergitol NP-9 present. The procedure:
(§1) Each detergent was added at 0.2% to a reagent solution containing 50 mM Tricine pH 8.3, 3.5 mM MgSO4, 1 mM CDTA, 30 mM thiourea and 0.5% Tergitol NP-9. This solution or one not containing a detergent inhibitor was used to resuspend the Bright-Glo™ luciferin substrate (Promega).
(§2) The luciferase reactions were initiated by adding 100 μl of the firefly luciferase or Renilla luciferase enzyme solutions to 100 μl of reagent solution. The reactions were performed as described above. […] The detergent concentrations listed refer to the final concentration in the reaction.

The target in experiment [4] is T1, firefly luciferase. Put plainly: Quaternary ammonium/phosphonium detergent screen, firefly luciferase (Example 5). The settings on record: Tergitol NP-9 present. The procedure:
as §1, §2

The mark [5] stands for this setting: final conc. 0.10% detergent, read-out: Retained Renilla Luciferase Luminescence (%).
Where [6] appears, read: final conc. 0.10% detergent, read-out: Retained Firefly Luciferase Luminescence (%).
[7] abbreviates: read-out: Retained Renilla Luciferase Luminescence (%), final conc. 0.10% detergent.
[8] abbreviates: read-out: Retained Firefly Luciferase Luminescence (%), final conc. 0.10% detergent.

Where two headings read alike, the source gives them in different places.

In the case of `C[N+]1(C)CCCc2cccc(O)c21.[I-]` [1,1-Dimethyl-8-hydroxy-1,2,3,4-tetrahydroquinolium iodide], the “Retained Firefly Luciferase Luminescence (%)” value on firefly luciferase [1] is reported as 81%; on firefly luciferase [4] (final conc. 0.10% detergent), 68%. Moreover, the “Selectivity Value” at Renilla luciferase [2] was found to be 0.9; at Renilla luciferase [3] (final conc. 0.10% detergent) it was 0.8. Also, the entries for the “Retained Renilla Luciferase Luminescence (%)” value on Renilla luciferase [2] and on Renilla luciferase [3] (final conc. 0.10% detergent) were 88% and 82%, respectively.

For `CCCCCCCCCCC(C(=O)c1ccc(OC)cc1)[N+](C)(C)C.[Br-]` (stereo not drawn) [(1-(4-methoxybenzoyl)-undecyl)-trimethylammonium bromide], the values for the remaining activity at 0.03 % on firefly luciferase [1] and at Renilla luciferase [2] were 106% and 20%, respectively. The “Selectivity Value” at Renilla luciferase [2] is on record as 5.3; at Renilla luciferase [3] (final conc. 0.10% detergent), 52. The remaining activity at 0.1 % at Renilla luciferase [3] (setting [5]) is 2%; on firefly luciferase [4] (setting [6]), 104%.

As to `C[P+](CCCC(=O)O)(c1ccccc1)c1ccccc1.[Cl-]` [(3-Carboxyl-propyl)-methyl-diphenyl-phosphonium chloride], the remaining activity at 0.03 % at firefly luciferase [1] came to 98%; at Renilla luciferase [2] it was 99%. For the same molecule, the “Selectivity Value” at Renilla luciferase [2] stood at 1.0; at Renilla luciferase [3] (final conc. 0.10% detergent), 0.9. Besides, the remaining activity at 0.1 % at Renilla luciferase [3] (setting [7]) came out at 89%; on firefly luciferase [4] (setting [8]), 102%.

Regarding `CCCC[P+](CCCC)(CCCC)Cc1ccc(C)cc1.[Cl-]` [(4-Methylbenzyl)tributylphosphonium chloride], the remaining activity at 0.03 % on firefly luciferase [1] was determined as 99%; on Renilla luciferase [2] it was 65%. In addition, the “Selectivity Value” is 1.5 at Renilla luciferase [2] and 3.3 at Renilla luciferase [3] (final conc. 0.10% detergent). The remaining activity at 0.1 % at Renilla luciferase [3] (setting [5]) was determined as 32%; on firefly luciferase [4] (setting [6]) it was 106%.

In the case of `C=CCCC[P+](c1ccccc1)(c1ccccc1)c1ccccc1.[Br-]` [(4-Penten-1-yl)triphenylphosphonium bromide], the remaining activity at 0.03 % on firefly luciferase [1] was 98%; at Renilla luciferase [2], 57%. In addition, the figures for the “Selectivity Value” at Renilla luciferase [2] and on Renilla luciferase [3] (final conc. 0.10% detergent) were 1.7 and 4.9, respectively. Moreover, the remaining activity at 0.1 % at Renilla luciferase [3] (setting [5]) worked out at 21%; on firefly luciferase [4] (setting [6]), 102%.

Take `CC=CC[P+](Cc1ccccc1)(c1ccccc1)c1ccccc1.[Br-]` [Benzyl-but-2-enyl-diphenyl-phosphonium bromide]: the remaining activity at 0.03 % came to 106% on firefly luciferase [1] and 50% at Renilla luciferase [2]. The figures for the “Selectivity Value” on Renilla luciferase [2] and on Renilla luciferase [3] (final conc. 0.10% detergent) were 2.1 and 7.8, respectively. Also, the remaining activity at 0.1 % was 14% on Renilla luciferase [3] (setting [5]) and 109% on firefly luciferase [4] (setting [6]).

For the molecule `CC[N+](CC)(CCC(=O)Nc1c(C)cccc1C)Cc1ccccc1.O=C([O-])c1ccccc1` [Benzyldiethyl(2,6-xylycarbamoylethyl)-ammonium benzoate], the “Retained Firefly Luciferase Luminescence (%)” value on firefly luciferase [1] was found to be 110%; on firefly luciferase [4] (final conc. 0.10% detergent), 102%. Further, the “Selectivity Value” at Renilla luciferase [2] came out at 1.5; on Renilla luciferase [3] (final conc. 0.10% detergent), 2.2. Besides, the “Retained Renilla Luciferase Luminescence (%)” value on Renilla luciferase [2] is given as 74%; at Renilla luciferase [3] (final conc. 0.10% detergent) it was 46%.

On to `CCCCCCCCCC[N+](C)(C)Cc1ccccc1.[Cl-]` [Benzyldimethyldecylammonium chloride], for which the remaining activity at 0.03 % was determined as 114% at firefly luciferase [1] and 18% at Renilla luciferase [2]. The “Selectivity Value” on Renilla luciferase [2] is recorded as 6.3; at Renilla luciferase [3] (final conc. 0.10% detergent) it was 112. For the same molecule, the remaining activity at 0.1 % on Renilla luciferase [3] (setting [5]) worked out at 1%; at firefly luciferase [4] (setting [6]), 112%.

For `CCCCCCCCCCCCCCCC[N+](C)(C)Cc1ccccc1.[Cl-]` [Benzyldimethylhexadecylammonium chloride], the remaining activity at 0.03 % on firefly luciferase [1] was 100%; at Renilla luciferase [2], 47%. Moreover, the “Selectivity Value” is recorded as 2.1 at Renilla luciferase [2] and 32.2 on Renilla luciferase [3] (final conc. 0.10% detergent). For the same molecule, the figures for the remaining activity at 0.1 % at Renilla luciferase [3] (setting [5]) and at firefly luciferase [4] (setting [6]) were 3% and 97%, respectively.

With `C[N+](C)(Cc1ccccc1)c1ccccc1.[Br-]` [Benzyldimethylphenylammonium bromide], the “Retained Firefly Luciferase Luminescence (%)” value was determined as 101% at firefly luciferase [1] and 107% on firefly luciferase [4] (final conc. 0.10% detergent). The “Selectivity Value” at Renilla luciferase [2] and at Renilla luciferase [3] (final conc. 0.10% detergent) was 1.3 in each case. Further, the results for the “Retained Renilla Luciferase Luminescence (%)” value at Renilla luciferase [2] and on Renilla luciferase [3] (final conc. 0.10% detergent) were 78% and 81%, respectively.

With `C[N+](C)(Cc1ccccc1)c1ccccc1.[Cl-]` [Benzyldimethylphenylammonium chloride], the remaining activity at 0.03 % on firefly luciferase [1] turned out to be 82%. Also, on Renilla luciferase [2], the “Selectivity Value” came out at 2.2 and the “Retained Renilla Luciferase Luminescence (%)” value turned out to be 38%. Further, at Renilla luciferase [3] (final conc. 0.10% detergent), the “Selectivity Value” was determined as 4.6 and the “Retained Renilla Luciferase Luminescence (%)” value is given as 12%. Further, the “Retained Firefly Luciferase Luminescence (%)” value at firefly luciferase [4] (final conc. 0.10% detergent) worked out at 55%.

For `CC[N+](CC)(CC)Cc1ccccc1.[Br-]` [Benzyltriethylammonium bromide], the figures for the remaining activity at 0.03 % on firefly luciferase [1] and on Renilla luciferase [2] were 97% and 95%, respectively. The “Selectivity Value” on Renilla luciferase [2] was found to be 1.0; at Renilla luciferase [3] (final conc. 0.10% detergent), 0.9. Besides, the results for the remaining activity at 0.1 % on Renilla luciferase [3] (setting [7]) and on firefly luciferase [4] (setting [8]) were 87% and 100%, respectively.

For the molecule `CC[P+](CC)(CC)Cc1ccccc1.[Br-]` [Benzyltriethylphosphonium bromide], the remaining activity at 0.03 % is 97% at firefly luciferase [1] and 88% at Renilla luciferase [2]. Besides, the “Selectivity Value” on Renilla luciferase [2] amounted to 1.1; at Renilla luciferase [3] (final conc. 0.10% detergent), 2.0. Further, the values for the remaining activity at 0.1 % at Renilla luciferase [3] (setting [5]) and on firefly luciferase [4] (setting [6]) were 51% and 102%, respectively.

As to `C[N+](C)(C)Cc1ccccc1.[Br-]` [Benzyltrimethylammonium bromide], the remaining activity at 0.03 % at firefly luciferase [1] amounted to 99%; on Renilla luciferase [2], 95%. Further, the “Selectivity Value” on Renilla luciferase [2] and on Renilla luciferase [3] (final conc. 0.10% detergent) was 1.0 throughout. Besides, the remaining activity at 0.1 % is 87% on Renilla luciferase [3] (setting [7]) and 100% on firefly luciferase [4] (setting [8]).

In the case of `C[N+](C)(C)Cc1ccccc1.[I-]` [Bezyltrimethylammonium iodide], the “Retained Firefly Luciferase Luminescence (%)” value was 76% on firefly luciferase [1] and 62% at firefly luciferase [4] (final conc. 0.10% detergent). Besides, the “Selectivity Value” was 0.8 at Renilla luciferase [2] and 0.6 on Renilla luciferase [3] (final conc. 0.10% detergent). Also, the “Retained Renilla Luciferase Luminescence (%)” value at Renilla luciferase [2] was found to be 93%; at Renilla luciferase [3] (final conc. 0.10% detergent), 97%.

As for `C[P+](C)(Cc1ccc([N+](=O)[O-])cc1)c1ccccc1.[Br-]` [Dimethyl(4-nitrobenzyl)phenylphosphonium bromide], the remaining activity at 0.03 % came out at 99% on firefly luciferase [1] and 78% on Renilla luciferase [2]. In addition, the “Selectivity Value” on Renilla luciferase [2] is given as 1.3; on Renilla luciferase [3] (final conc. 0.10% detergent) it was 2.2. The remaining activity at 0.1 % is 49% at Renilla luciferase [3] (setting [5]) and 106% on firefly luciferase [4] (setting [6]).

As for `CC[N+](C)(C)c1cccc(O)c1` [Edrophonium chloride], the figures for the remaining activity at 0.03 % at firefly luciferase [1] and on Renilla luciferase [2] were 98% and 93%, respectively. Besides, the “Selectivity Value” at Renilla luciferase [2] stood at 1.0; on Renilla luciferase [3] (final conc. 0.10% detergent) it was 1.1. In addition, the remaining activity at 0.1 % at Renilla luciferase [3] (setting [5]) was 89%; at firefly luciferase [4] (setting [6]) it was 102%.

Regarding `C=C(C)[P+](C)(c1ccccc1)c1ccccc1.[I-]` [Isopropenylmethyldiphenylphosphonium iodide], the results for the remaining activity at 0.03 % on firefly luciferase [1] and on Renilla luciferase [2] were 95% and 82%, respectively. For the same molecule, the “Selectivity Value” was determined as 1.2 at Renilla luciferase [2] and 2.1 at Renilla luciferase [3] (final conc. 0.10% detergent). Further, the remaining activity at 0.1 % at Renilla luciferase [3] (setting [5]) was 51%; at firefly luciferase [4] (setting [6]) it was 109%.

“(−)-N-dodecyl-N-methyl ephedrium bromide”: the “Retained Firefly Luciferase Luminescence (%)” value on firefly luciferase [1] turned out to be 106%; on firefly luciferase [4] (final conc. 0.10% detergent) it was 102%. Besides, the “Selectivity Value” at Renilla luciferase [2] was determined as 7.1; at Renilla luciferase [3] (final conc. 0.10% detergent), 102.1. The “Retained Renilla Luciferase Luminescence (%)” value worked out at 15% at Renilla luciferase [2] and 1% at Renilla luciferase [3] (final conc. 0.10% detergent).
